Data reported in patent US9029337B2, “Modulation of factor 7 expression” (Isis Pharmaceuticals, Inc., priority 2007, dated 2015).
Strand notation (5' to 3'): a small letter for the sugar, then the base; units joined by * are phosphorothioate-linked, units joined directly phosphodiester-linked; [ ] holds rarer units or linkages, { } end groups; capitals alone tell only the bases. e = 2'-O-(2-methoxyethyl) (MOE); [5mC] = 5-methylcytosine; d = 2'-deoxy (DNA)

These substances were tested on human Factor 7 mRNA (assay: Antisense inhibition of human Factor 7 with short (14-mer) oligonucleotides in HepB3 cells, electroporation 1,000 nM). Details: electroporation, 1,000 nM antisense oligonucleotide, approximately 24 hours, Factor 7 mRNA relative to untreated control cells.
Assay type: cell-based
Excerpt: Short antisense oligonucleotides (shortmers) were designed to target a Factor 7 nucleic acid. The shortmers in Table 17 were designed as 2-10-2 MOE gapmers. The gapmers are 14 nucleotides in length, wherein the central gap segment is comprised of 10 2′-deoxynucleotides and is flanked on both sides (in the 5′ and 3′ directions) by wings comprising 2 nucleotides each. Each nucleotide in the 5′ wing segment and each nucleotide in the 3′ wing segment has a 2′-MOE modification. The internucleoside linkages throughout each gapmer are phosphorothioate (P═S) linkages. All cytidine residues throughout each gapmer are 5-methylcytidines.
Shortmers were evaluated for their ability to reduce human Factor 7 mRNA in HepB3 cells and compared with one 5-10-5 chimeric oligonucleotide from Table 16, ISIS 407939. HepB3 cells at a density of 20,000 cells per well in a 96-well plate were transfected using electroporation with 1,000 nM of antisense oligonucleotide. After a treatment period of approximately 24 hours, RNA was isolated from the cells and Factor 7 mRNA levels were measured by real-time RT-PCR, as described herein. Factor 7 mRNA levels were adjusted according to total RNA content as measured by RIBOGREEN®. Results are presented in Table 17 as percent inhibition of Factor 7 mRNA, relative to untreated control cells. ISIS 407939 is the first oligonucleotide in Table 17 to which the shortmers were compared, and is marked by an asterisk (*).

Row | Substance | % Inhibition [%]
1 | 435686 (antisense e[5mC]*eA*dG*dT*dG*dA*dG*dG*dA*d[5mC]*d[5mC]*dA*e[5mC]*eG) [compound 435686] | 31
2 | 435687 (antisense eA*eT*dG*dG*dT*d[5mC]*dA*dG*dT*dG*dA*dG*eG*eA) [compound 435687] | 7
3 | 435688 (antisense eA*e[5mC]*d[5mC]*dA*d[5mC]*dA*dT*dG*dG*dT*d[5mC]*dA*eG*eT) [compound 435688] | 0
4 | 435689 (antisense eT*eT*d[5mC]*dG*dG*dG*d[5mC]*dA*dG*dG*d[5mC]*dA*eG*eA) [compound 435689] | 23
5 | 435690 (antisense eG*eT*d[5mC]*d[5mC]*dG*dT*dT*d[5mC]*dG*dG*dG*d[5mC]*eA*eG) [compound 435690] | 55
6 | 435691 (antisense e[5mC]*eA*dG*d[5mC]*d[5mC]*dG*d[5mC]*dT*dG*dA*d[5mC]*d[5mC]*eA*eA) [compound 435691] | 25
7 | 435692 (antisense e[5mC]*eG*dG*dT*d[5mC]*d[5mC]*dA*dG*d[5mC]*dA*dG*d[5mC]*eT*eG) [compound 435692] | 32
8 | 435693 (antisense eG*eG*d[5mC]*dA*dG*dT*d[5mC]*d[5mC]*dT*dG*dG*dG*eT*e[5mC]) [compound 435693] | 43
9 | 435694 (antisense e[5mC]*eT*dG*d[5mC]*dA*dG*dG*d[5mC]*dA*dG*dT*d[5mC]*e[5mC]*eT) [compound 435694] | 39
10 | 435695 (antisense eG*eA*d[5mC]*dT*dG*d[5mC]*dT*dG*d[5mC]*dA*dG*dG*e[5mC]*eA) [compound 435695] | 48
11 | 435696 (antisense e[5mC]*eA*dG*dA*dA*d[5mC]*dA*dT*dG*dT*dA*d[5mC]*eT*e[5mC]) [compound 435696] | 10
12 | 435697 (antisense eA*eG*dT*dA*dG*d[5mC]*d[5mC]*dG*dG*d[5mC]*dA*d[5mC]*eA*eG) [compound 435697] | 53
13 | 435698 (antisense e[5mC]*e[5mC]*dT*dT*dG*d[5mC]*dA*dG*dG*dA*dG*dT*e[5mC]*e[5mC]) [compound 435698] | 61
14 | 435699 (antisense eG*e[5mC]*d[5mC]*d[5mC]*d[5mC]*dA*dG*d[5mC]*dT*dG*dA*d[5mC]*eG*eA) [compound 435699] | 48
15 | 435714 (antisense eA*e[5mC]*dT*d[5mC]*dG*dA*dT*dG*dT*dA*d[5mC]*dT*eG*eG) [compound 435714] | 3
16 | 435715 (antisense e[5mC]*eA*dG*d[5mC]*d[5mC]*dA*d[5mC]*dT*d[5mC]*dG*dA*dT*eG*eT) [compound 435715] | 35
17 | 435716 (antisense eT*eT*dT*dT*dG*d[5mC]*dA*dG*d[5mC]*d[5mC]*dA*d[5mC]*eT*e[5mC]) [compound 435716] | 22
18 | 435717 (antisense eT*eG*dA*dG*d[5mC]*dT*dT*dT*dT*dG*d[5mC]*dA*eG*e[5mC]) [compound 435717] | 0
19 | 435718 (antisense eG*e[5mC]*dT*d[5mC]*dG*d[5mC]*dA*dG*dG*dA*dG*dG*eA*e[5mC]) [compound 435718] | 26
20 | 435719 (antisense e[5mC]*eA*dG*d[5mC]*d[5mC]*dT*dT*dG*dG*d[5mC]*dT*dT*eT*e[5mC]) [compound 435719] | 50
21 | 435720 (antisense eA*eG*dG*d[5mC]*dT*d[5mC]*dA*dG*d[5mC]*dT*dG*dG*eG*e[5mC]) [compound 435720] | 16
22 | 435721 (antisense eT*eA*dA*dG*dG*dA*dG*dG*d[5mC]*dT*d[5mC]*dA*eG*e[5mC]) [compound 435721] | 12

Row | Substance | % Inhibition [%]
23 | 435722 (antisense eT*eG*dG*dG*d[5mC]*dT*dT*dG*dG*d[5mC]*dT*dG*eA*eA) [compound 435722] | 50
24 | 435723 (antisense eG*e[5mC]*d[5mC]*dA*dG*d[5mC]*dA*dG*dA*dT*d[5mC]*dA*e[5mC]*eG) [compound 435723] | 68
25 | 435724 (antisense e[5mC]*eT*dG*dA*dG*dG*d[5mC]*d[5mC]*dA*dG*d[5mC]*dA*eG*eA) [compound 435724] | 52
26 | 435725 (antisense eG*e[5mC]*dA*dG*d[5mC]*d[5mC]*dT*dG*dA*dG*dG*d[5mC]*e[5mC]*eA) [compound 435725] | 79
27 | 435726 (antisense eG*e[5mC]*dA*dA*dT*dG*dA*dA*dG*dG*d[5mC]*dA*eG*eA) [compound 435726] | 26
28 | 435727 (antisense eT*eG*dG*dA*dG*dT*d[5mC]*dA*dG*d[5mC]*dA*dT*e[5mC]*eG) [compound 435727] | 73
29 | 435728 (antisense eA*e[5mC]*dA*d[5mC]*dA*dT*dG*dG*dA*dG*dT*d[5mC]*eA*eG) [compound 435728] | 16
30 | 435729 (antisense eA*e[5mC]*dA*dG*d[5mC]*dA*d[5mC]*dA*d[5mC]*dA*dT*dG*eG*eA) [compound 435729] | 30
31 | 435730 (antisense eT*eA*dA*dA*d[5mC]*dA*dA*d[5mC]*d[5mC]*dG*d[5mC]*d[5mC]*eT*eT) [compound 435730] | 49
32 | 435731 (antisense eG*eT*dG*dA*dG*dA*dG*d[5mC]*dT*dA*dA*dA*e[5mC]*eA) [compound 435731] | 11
33 | 435732 (antisense eG*eA*dA*dA*dA*dG*dT*dG*dA*dG*dA*dG*e[5mC]*eT) [compound 435732] | 0
34 | 435733 (antisense e[5mC]*eT*dG*dA*dA*dT*dT*dG*dT*d[5mC]*dT*dG*eA*eA) [compound 435733] | 5
35 | 435734 (antisense eA*eT*dG*d[5mC]*dT*dT*d[5mC]*dT*dG*dA*dA*dT*eT*eG) [compound 435734] | 16
36 | 435735 (antisense eT*eG*dG*dT*dG*dA*dT*dG*d[5mC]*dT*dT*d[5mC]*eT*eG) [compound 435735] | 81
37 | 435736 (antisense eA*eT*dG*d[5mC]*dA*dT*dG*dG*dT*dG*dA*dT*eG*e[5mC]) [compound 435736] | 50
38 | 435737 (antisense eG*eT*dG*d[5mC]*dA*dG*d[5mC]*d[5mC]*d[5mC]*dG*dG*d[5mC]*eA*e[5mC]) [compound 435737] | 70
39 | 435738 (antisense e[5mC]*eA*dG*dA*dG*dG*dA*dT*dG*dA*dG*d[5mC]*eA*e[5mC]) [compound 435738] | 16
40 | 435739 (antisense e[5mC]*eA*dT*d[5mC]*dT*d[5mC]*dA*dG*dA*dG*dG*dA*eT*eG) [compound 435739] | 5
41 | 435740 (antisense eT*e[5mC]*dA*dT*dT*dT*d[5mC]*dA*dG*dT*dG*dA*eT*eG) [compound 435740] | 0
42 | 435741 (antisense eA*eG*dG*dG*dT*dT*d[5mC]*dA*dT*dT*dT*d[5mC]*eA*eG) [compound 435741] | 6
43 | 435742 (antisense eA*eT*dG*dT*dG*dA*dG*dG*dG*dT*dT*d[5mC]*eA*eT) [compound 435742] | 11
